In ChEMBL document CHEMBL3991601, “The target landscape of clinical kinase drugs” (Science, 2017) one finds Kd data, which are given here for 16 compounds.

Test [1] has as its target Serine/threonine-protein kinase PAK 6 (Homo sapiens, UniProt Q9NQU5).
The target in test [2] is Serine/threonine-protein kinase ATR (Homo sapiens, UniProt Q13535).
Test [3] concerns the target Cell division cycle 7-related protein kinase (Homo sapiens, UniProt O00311).
For test [4], the target named is T1, Isoleucine--tRNA ligase, mitochondrial (Homo sapiens, UniProt Q9NSE4).
T1 sequence (Q9NSE4 whole entry): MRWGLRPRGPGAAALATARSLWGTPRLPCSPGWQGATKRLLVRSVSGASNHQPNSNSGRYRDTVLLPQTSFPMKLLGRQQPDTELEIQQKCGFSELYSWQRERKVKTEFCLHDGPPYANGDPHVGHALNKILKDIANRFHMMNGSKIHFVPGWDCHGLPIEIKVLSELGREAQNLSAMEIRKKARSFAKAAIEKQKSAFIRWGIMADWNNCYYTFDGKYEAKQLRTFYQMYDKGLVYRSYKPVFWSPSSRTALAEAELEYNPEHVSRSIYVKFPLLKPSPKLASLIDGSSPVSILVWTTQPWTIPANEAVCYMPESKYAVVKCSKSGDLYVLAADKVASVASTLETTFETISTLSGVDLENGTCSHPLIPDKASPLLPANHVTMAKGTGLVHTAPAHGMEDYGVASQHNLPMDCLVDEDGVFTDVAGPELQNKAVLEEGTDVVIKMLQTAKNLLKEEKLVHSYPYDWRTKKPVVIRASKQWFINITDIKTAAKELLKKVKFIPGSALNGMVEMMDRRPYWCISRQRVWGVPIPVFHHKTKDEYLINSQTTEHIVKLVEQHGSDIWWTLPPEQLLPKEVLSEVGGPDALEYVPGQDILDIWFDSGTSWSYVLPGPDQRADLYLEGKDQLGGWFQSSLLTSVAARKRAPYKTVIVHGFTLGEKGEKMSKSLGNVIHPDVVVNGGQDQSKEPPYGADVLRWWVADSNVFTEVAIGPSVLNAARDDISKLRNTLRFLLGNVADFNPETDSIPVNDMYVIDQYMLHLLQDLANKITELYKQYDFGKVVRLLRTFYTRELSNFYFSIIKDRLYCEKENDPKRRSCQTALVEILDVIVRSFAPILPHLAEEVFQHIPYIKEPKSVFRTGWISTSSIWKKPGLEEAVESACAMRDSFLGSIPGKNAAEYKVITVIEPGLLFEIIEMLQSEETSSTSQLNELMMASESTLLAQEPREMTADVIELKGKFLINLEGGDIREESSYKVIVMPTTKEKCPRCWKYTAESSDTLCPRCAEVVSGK

Test [5] has as its target T2, Dual specificity protein kinase TTK (Homo sapiens, UniProt P33981).
T2 sequence (P33981 whole entry): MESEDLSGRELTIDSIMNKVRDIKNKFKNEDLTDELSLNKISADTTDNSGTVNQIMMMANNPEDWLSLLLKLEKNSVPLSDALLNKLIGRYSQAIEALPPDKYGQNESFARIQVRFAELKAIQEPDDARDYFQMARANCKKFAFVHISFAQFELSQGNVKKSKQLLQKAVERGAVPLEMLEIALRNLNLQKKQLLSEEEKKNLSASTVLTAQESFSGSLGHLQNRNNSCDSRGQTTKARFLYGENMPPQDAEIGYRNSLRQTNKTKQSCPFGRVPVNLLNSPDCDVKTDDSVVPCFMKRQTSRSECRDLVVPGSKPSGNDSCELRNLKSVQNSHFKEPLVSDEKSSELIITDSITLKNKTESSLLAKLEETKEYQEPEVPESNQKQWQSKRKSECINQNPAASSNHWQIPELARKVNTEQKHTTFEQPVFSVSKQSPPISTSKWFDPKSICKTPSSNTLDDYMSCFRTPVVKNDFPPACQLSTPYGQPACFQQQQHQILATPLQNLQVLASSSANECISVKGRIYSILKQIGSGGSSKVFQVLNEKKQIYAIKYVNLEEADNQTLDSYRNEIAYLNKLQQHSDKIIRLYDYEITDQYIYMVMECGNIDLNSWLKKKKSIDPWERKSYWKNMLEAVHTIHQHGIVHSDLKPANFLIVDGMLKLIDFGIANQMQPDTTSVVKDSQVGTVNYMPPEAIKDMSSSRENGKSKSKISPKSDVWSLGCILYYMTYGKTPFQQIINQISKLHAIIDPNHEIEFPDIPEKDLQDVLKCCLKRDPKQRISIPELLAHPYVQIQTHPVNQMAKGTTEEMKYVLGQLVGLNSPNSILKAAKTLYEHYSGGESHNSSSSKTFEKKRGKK

Test [6] concerns the target MAP kinase-activated protein kinase 3 (Homo sapiens, UniProt Q16644).
Test [7] concerns the target T3, Long-chain-fatty-acid--CoA ligase 5 (Homo sapiens, UniProt Q9ULC5).
T3 sequence (Q9ULC5 whole entry): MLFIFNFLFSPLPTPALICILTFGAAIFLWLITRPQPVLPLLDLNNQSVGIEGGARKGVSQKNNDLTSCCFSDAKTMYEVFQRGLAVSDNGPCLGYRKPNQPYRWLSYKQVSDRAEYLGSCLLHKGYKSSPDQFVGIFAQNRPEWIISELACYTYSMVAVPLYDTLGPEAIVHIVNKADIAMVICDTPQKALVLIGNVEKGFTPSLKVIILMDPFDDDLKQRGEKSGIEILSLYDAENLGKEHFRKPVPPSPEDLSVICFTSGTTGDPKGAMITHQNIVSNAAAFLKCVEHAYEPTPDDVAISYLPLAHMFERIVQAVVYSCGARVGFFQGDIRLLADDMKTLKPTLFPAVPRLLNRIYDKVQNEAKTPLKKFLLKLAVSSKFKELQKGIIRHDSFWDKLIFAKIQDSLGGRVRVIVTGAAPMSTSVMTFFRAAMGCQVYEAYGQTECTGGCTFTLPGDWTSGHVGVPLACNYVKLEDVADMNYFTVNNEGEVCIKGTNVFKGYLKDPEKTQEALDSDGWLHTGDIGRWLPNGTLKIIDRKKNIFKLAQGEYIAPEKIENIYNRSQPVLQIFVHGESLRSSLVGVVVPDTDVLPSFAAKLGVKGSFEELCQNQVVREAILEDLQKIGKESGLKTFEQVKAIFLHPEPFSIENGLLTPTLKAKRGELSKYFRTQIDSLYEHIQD

For test [8], the target named is Serine/threonine-protein kinase 38-like (Homo sapiens, UniProt Q9Y2H1).
Chain of Serine/threonine-protein kinase 38-like (Q9Y2H1 whole entry): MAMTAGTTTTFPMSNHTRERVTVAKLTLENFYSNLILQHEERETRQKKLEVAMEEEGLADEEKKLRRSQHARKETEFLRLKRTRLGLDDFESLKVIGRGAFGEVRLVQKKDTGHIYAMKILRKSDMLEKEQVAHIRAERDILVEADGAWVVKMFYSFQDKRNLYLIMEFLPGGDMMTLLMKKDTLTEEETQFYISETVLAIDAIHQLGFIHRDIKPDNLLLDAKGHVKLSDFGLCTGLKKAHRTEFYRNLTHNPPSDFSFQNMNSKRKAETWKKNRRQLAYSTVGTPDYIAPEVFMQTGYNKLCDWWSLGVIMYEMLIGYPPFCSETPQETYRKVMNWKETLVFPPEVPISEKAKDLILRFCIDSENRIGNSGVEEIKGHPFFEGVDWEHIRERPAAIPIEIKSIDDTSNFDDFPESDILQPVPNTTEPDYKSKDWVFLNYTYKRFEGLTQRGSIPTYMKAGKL
For test [9], the target named is Serine/threonine-protein kinase N3 (Homo sapiens, UniProt Q6P5Z2).
Chain of Serine/threonine-protein kinase N3 (Q6P5Z2 whole entry): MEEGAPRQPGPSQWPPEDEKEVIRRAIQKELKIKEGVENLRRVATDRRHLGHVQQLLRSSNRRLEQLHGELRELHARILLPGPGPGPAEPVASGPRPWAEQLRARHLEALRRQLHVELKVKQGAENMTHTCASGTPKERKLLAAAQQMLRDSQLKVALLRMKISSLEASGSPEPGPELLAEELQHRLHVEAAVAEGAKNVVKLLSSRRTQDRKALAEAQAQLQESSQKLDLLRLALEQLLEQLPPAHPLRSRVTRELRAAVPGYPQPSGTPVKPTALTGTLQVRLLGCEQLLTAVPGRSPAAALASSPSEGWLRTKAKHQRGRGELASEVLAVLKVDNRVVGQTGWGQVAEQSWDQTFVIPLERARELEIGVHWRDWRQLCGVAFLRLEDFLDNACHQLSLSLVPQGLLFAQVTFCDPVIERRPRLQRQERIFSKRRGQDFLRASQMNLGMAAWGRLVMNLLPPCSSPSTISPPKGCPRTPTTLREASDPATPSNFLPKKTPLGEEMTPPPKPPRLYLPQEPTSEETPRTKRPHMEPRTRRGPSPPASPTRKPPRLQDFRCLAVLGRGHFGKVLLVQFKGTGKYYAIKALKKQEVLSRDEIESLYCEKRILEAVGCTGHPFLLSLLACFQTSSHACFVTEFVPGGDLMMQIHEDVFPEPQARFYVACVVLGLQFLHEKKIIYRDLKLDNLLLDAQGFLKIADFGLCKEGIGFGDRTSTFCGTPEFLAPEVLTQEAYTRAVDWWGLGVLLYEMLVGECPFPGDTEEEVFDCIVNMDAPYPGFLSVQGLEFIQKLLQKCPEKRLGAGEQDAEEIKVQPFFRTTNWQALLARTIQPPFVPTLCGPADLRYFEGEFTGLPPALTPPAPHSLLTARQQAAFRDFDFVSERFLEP

The source made the active and inactive calls. On the calls: in the data inactive means no Kd found up to 30 µM. Bounds are passed on as bounds.

Chain of Serine/threonine-protein kinase ATR (Q13535 whole entry): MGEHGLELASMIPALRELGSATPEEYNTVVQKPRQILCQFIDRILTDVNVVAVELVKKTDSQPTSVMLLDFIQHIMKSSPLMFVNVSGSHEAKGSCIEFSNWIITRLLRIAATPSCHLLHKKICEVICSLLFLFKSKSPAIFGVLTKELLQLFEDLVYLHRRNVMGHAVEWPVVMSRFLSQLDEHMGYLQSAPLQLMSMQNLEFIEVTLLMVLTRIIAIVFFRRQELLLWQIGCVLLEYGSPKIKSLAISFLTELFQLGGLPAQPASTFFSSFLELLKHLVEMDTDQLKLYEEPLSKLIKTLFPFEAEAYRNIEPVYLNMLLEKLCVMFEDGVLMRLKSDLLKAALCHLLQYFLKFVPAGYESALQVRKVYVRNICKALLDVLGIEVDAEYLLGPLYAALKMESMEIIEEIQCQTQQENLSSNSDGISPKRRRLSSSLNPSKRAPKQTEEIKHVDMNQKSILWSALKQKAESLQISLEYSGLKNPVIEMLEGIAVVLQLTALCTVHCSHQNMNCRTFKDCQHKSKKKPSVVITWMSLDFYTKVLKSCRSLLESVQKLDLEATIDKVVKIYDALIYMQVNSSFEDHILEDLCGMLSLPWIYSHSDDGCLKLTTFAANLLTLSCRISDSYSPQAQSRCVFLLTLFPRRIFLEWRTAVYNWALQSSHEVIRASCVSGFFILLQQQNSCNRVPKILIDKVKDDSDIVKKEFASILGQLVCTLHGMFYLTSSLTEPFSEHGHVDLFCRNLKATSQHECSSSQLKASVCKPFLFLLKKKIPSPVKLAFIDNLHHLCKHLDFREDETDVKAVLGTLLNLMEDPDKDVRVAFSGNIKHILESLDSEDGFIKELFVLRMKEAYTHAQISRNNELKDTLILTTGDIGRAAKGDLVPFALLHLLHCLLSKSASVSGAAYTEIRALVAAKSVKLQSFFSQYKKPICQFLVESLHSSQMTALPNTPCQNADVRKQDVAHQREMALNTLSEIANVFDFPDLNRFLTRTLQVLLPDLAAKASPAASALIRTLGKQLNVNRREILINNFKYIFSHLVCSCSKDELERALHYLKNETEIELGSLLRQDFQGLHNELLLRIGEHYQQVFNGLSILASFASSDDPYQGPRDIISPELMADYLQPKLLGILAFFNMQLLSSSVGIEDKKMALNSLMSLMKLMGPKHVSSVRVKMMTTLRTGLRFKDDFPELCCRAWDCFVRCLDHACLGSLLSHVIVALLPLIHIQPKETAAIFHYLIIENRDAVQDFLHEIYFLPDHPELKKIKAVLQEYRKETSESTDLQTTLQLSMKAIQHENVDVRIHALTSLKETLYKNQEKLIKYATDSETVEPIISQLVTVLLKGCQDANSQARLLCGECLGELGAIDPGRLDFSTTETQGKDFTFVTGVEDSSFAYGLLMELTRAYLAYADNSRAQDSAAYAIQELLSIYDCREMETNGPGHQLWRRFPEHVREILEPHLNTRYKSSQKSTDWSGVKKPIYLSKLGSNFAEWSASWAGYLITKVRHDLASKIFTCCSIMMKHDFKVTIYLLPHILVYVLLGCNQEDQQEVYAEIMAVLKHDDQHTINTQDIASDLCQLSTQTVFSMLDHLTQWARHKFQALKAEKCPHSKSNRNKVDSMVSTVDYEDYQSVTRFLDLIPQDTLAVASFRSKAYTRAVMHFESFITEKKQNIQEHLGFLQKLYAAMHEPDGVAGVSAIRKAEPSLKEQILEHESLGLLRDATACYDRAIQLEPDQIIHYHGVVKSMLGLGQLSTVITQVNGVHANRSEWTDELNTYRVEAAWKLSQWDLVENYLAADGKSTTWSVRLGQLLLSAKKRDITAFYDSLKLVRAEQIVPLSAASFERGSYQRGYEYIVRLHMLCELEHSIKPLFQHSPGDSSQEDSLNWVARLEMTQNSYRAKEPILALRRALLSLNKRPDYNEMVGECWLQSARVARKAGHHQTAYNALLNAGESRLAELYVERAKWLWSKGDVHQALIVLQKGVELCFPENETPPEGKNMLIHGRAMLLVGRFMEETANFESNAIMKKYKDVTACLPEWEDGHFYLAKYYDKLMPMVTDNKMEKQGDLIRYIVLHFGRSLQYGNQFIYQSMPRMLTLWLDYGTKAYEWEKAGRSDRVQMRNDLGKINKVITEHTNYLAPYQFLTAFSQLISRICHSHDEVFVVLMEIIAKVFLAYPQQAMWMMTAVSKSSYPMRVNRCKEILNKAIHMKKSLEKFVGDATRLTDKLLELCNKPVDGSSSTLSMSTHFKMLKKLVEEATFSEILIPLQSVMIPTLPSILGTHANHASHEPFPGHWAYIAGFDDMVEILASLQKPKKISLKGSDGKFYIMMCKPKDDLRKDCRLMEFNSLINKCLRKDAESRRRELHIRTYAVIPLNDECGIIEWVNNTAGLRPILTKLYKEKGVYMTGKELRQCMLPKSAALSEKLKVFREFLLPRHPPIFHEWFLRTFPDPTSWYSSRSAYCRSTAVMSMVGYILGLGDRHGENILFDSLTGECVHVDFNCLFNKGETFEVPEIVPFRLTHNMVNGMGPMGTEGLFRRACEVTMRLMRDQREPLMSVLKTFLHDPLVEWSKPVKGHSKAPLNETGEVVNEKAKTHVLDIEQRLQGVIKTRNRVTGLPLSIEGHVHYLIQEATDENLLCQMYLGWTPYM
Chain of MAP kinase-activated protein kinase 3 (Q16644 whole entry): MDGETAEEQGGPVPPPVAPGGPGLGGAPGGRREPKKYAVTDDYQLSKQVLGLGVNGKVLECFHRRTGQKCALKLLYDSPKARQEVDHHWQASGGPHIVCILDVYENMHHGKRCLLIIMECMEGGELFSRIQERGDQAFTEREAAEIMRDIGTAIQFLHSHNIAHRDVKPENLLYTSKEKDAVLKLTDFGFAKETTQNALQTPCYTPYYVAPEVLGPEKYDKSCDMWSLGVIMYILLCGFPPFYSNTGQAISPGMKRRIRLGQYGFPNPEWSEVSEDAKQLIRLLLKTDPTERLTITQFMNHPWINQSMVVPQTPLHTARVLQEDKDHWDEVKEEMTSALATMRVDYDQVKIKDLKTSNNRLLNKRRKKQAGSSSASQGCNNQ
Chain of Serine/threonine-protein kinase PAK 6 (Q9NQU5 whole entry): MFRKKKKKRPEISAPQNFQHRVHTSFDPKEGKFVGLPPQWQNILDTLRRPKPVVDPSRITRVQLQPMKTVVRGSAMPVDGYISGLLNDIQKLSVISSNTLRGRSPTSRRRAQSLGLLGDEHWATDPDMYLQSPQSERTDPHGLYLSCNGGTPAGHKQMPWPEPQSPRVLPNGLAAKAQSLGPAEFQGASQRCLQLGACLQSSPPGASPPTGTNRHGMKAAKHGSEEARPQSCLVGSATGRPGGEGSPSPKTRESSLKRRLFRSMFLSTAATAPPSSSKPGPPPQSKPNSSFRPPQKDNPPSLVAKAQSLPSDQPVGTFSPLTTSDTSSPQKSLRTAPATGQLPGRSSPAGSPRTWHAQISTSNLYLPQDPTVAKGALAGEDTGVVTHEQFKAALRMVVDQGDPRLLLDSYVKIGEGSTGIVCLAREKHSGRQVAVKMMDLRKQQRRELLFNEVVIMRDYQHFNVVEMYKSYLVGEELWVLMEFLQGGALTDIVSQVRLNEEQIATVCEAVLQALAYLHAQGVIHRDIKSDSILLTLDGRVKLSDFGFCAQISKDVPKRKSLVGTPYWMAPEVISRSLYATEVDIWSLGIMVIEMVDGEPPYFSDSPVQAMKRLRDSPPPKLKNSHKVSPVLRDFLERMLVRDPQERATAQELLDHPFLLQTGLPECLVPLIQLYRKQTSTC

In general, Kd refers to the equilibrium constant for the complex coming apart. In the case of `CCn1c(C(=O)N(C2CC2)C2CC2)cc2c3c(ncn3C)c(Nc3cc(C)n(C)n3)nc21` [BMS-911543], the Kd in test [1], in [2], in test [3], in [4], in [5] and in test [6] was > 30 µM (inactive) in each case. In addition, the Kd in [7] is > 30 µM (inactive).
Consider `COc1c(OCCCN2CCOCC2)ccc2c1N=C(NC(=O)c1cnc(N)nc1)N1CCN=C21` [COPANLISIB], for which the Kd in [1], in test [2], in test [8], in [9] and in test [7] was > 30 µM (inactive) in each case.
With `CC(C)(C)c1nc(-c2cccc(NS(=O)(=O)c3c(F)cccc3F)c2F)c(-c2ccnc(N)n2)s1` [DABRAFENIB], the Kd in test [1], in test [3], in [4], in test [5], in [6] and in [9] was > 30 µM (inactive) throughout.
Regarding `O=C(Nc1nc2cccc(-c3ccc(CN4CCS(=O)(=O)CC4)cc3)n2n1)C1CC1` [FILGOTINIB], the Kd in test [1], in test [2], in [4] and in [8] was > 30 µM (inactive) throughout.
In the case of `O=C(Nc1cc(C(F)(F)F)cc(C(F)(F)F)c1)c1cc(Cl)ccc1O` [IMD-0354], the Kd in [1], in test [2], in [3], in test [5] and in test [8] was > 30 µM (inactive) throughout.
Turning to `CNC(=O)c1nn(C)c2c1C(C)(C)Cc1cnc(Nc3ccc(N4CCN(C)CC4)cc3)nc1-2` [MILCICLIB], the Kd in [1], in test [2], in test [3], in test [5], in test [8] and in test [9] was > 30 µM (inactive) throughout. For the same compound, the Kd in [7] was > 30 µM (inactive).
For `FC(F)(F)c1ccc(/C=C/c2nc(COc3ccc(CCCCn4ccnn4)cc3)co2)cc1` [MUBRITINIB], the Kd in [2], in [5] and in [8] was > 30 µM (inactive) throughout.
For the compound `NC(=O)c1c(OCc2c(F)cc(Br)cc2F)nsc1NC(=O)NCCCCN1CCCC1` [OSI-632], the Kd in test [1], in test [2], in [5], in test [8], in test [9] and in test [7] was > 30 µM (inactive) throughout.
With `CCCCCCCCCCCCCCCCCCOP(=O)([O-])OC1CC[N+](C)(C)CC1` [PERIFOSINE], the Kd in [4], in [8] and in test [7] was > 30 µM (inactive) each time.
For the compound `Cc1nc(Nc2n[nH]c3c2CN(C(=O)N[C@H](CN(C)C)c2ccccc2)C3(C)C)c2sccc2n1` [PF-03758309], the Kd in [1] was 0.003 µM (active); in test [2] it was > 30 µM (inactive); in test [3], > 30 µM (inactive); in test [4], > 30 µM (inactive); in [8] it was > 30 µM (inactive); in test [9] it was > 30 µM (inactive). Also, in test [7], the Kd is > 30 µM (inactive).
On to `CC(=O)NCC(=O)N1[C@@H]2CC[C@H]1c1ccc(Nc3ncc(C(F)(F)F)c(NC4CCC4)n3)cc12` [PF-03814735], for which the Kd in test [5], in [8] and in test [7] was > 30 µM (inactive) throughout.
Consider `CO[C@H]1C[C@@H]2CC[C@@H](C)[C@@](O)(O2)C(=O)C(=O)N2CCCC[C@H]2C(=O)O[C@H]([C@H](C)C[C@@H]2CC[C@@H](OP(C)(C)=O)[C@H](OC)C2)CC(=O)[C@H](C)/C=C(\C)[C@@H](O)[C@@H](OC)C(=O)[C@H](C)C[C@H](C)/C=C/C=C/C=C/1C` [RIDAFOROLIMUS], for which the Kd in test [3], in test [5], in [8], in test [9] and in test [7] was > 30 µM (inactive) in each case.
As to `CCS(=O)(=O)c1cccc(-c2cc(C(=O)NC3CCN(C)CC3)c(C)c3[nH]c4ncc(C)cc4c23)c1` [TAK-901], the Kd in test [1], in test [3], in test [5], in test [8] and in test [7] was > 30 µM (inactive) each time.
Regarding `COc1cc2c(Nc3ccc(Cl)c(Cl)c3F)ncnc2cc1OC[C@@H]1C[C@@H]2CN(C)C[C@@H]2C1` [TESEVATINIB], the Kd in test [1] is > 30 µM (inactive); in test [2] it was > 30 µM (inactive); in test [4], > 30 µM (inactive); in test [5] it was > 30 µM (inactive); in test [6], 0.002 µM; in [9] it was > 30 µM (inactive). In addition, the Kd in test [7] is > 30 µM (inactive).
On to `O=C(Cc1ccc(-c2ccc(OCCN3CCOCC3)cc2)cn1)NCc1ccccc1` [TIRBANIBULIN], for which the Kd in test [4], in test [8] and in [7] was > 30 µM (inactive) each time.
For `C[C@@H](NC(=O)c1ncnc(N)c1Cl)c1ncc(C(=O)Nc2cc(C(F)(F)F)c(Cl)cn2)s1` [TOVORAFENIB], the Kd in [1], in [2], in [3], in test [5], in [8] and in test [9] was > 30 µM (inactive) each time.
